From PubChem BioAssay AID1963841 (Molecular Pharmacology Branch, DTP, NCI, 2024)
pIC50: −log10 of the molar value. Several values for one entry are separate records, joined by “and”; a condition that tells them apart may be missing. Identical values can stand only once.

Tested on: 439559-082-T-J2-PDC spheroid viability
Assay: Anticancer human tumor 439559-082-T-J2-PDC patient-derived colon adenocarcinoma cell line growth inhibition [POLQ]
Conditions: spheroids with HUVEC and MSC; for viability, T/C: stronger effect = lower value
Summary of the method: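 PDC + HUVEC + MSC complex spheroids; POLQ inhibitors ± partner drugs; top conc. at/near clinical Cmax, else 10 microM (SN-38 1 microM), half-log dilutions; 37 degrees C, 5% CO2.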

[1] = curve of first compound, second compound 0.0316 µM
[2] = curve of first compound, second compound 0.1 µM
[3] = curve of first compound, second compound 0.316 µM
[4] = curve of first compound, second compound 1 µM
[5] = curve of first compound, second compound 3.16 µM
[6] = curve of first compound, second compound 10 µM
[7] = second compound 0.0316 µM, first compound 0.0316 µM
[8] = second compound 0.0316 µM, first compound 0.1 µM
[9] = second compound 0.0316 µM, first compound 0.316 µM
[10] = second compound 0.0316 µM, first compound 1 µM
[11] = second compound 0.0316 µM, first compound 3.16 µM
[12] = second compound 0.0316 µM, first compound 10 µM
[13] = second compound 0.1 µM, first compound 0.0316 µM
[14] = second compound 0.1 µM, first compound 0.1 µM
[15] = second compound 0.1 µM, first compound 0.316 µM
[16] = second compound 0.1 µM, first compound 1 µM
[17] = second compound 0.1 µM, first compound 3.16 µM
[18] = second compound 0.1 µM, first compound 10 µM
[19] = second compound 0.316 µM, first compound 0.0316 µM
[20] = second compound 0.316 µM, first compound 0.1 µM
[21] = second compound 0.316 µM, first compound 0.316 µM
[22] = second compound 0.316 µM, first compound 1 µM
[23] = second compound 0.316 µM, first compound 3.16 µM
[24] = second compound 0.316 µM, first compound 10 µM
[25] = second compound 1 µM, first compound 0.0316 µM
[26] = second compound 1 µM, first compound 0.1 µM
[27] = second compound 1 µM, first compound 0.316 µM
[28] = second compound 1 µM, first compound 1 µM
[29] = second compound 1 µM, first compound 3.16 µM
[30] = second compound 1 µM, first compound 10 µM
[31] = second compound 3.16 µM, first compound 0.0316 µM
[32] = second compound 3.16 µM, first compound 0.1 µM
[33] = second compound 3.16 µM, first compound 0.316 µM
[34] = second compound 3.16 µM, first compound 1 µM
[35] = second compound 3.16 µM, first compound 3.16 µM
[36] = second compound 3.16 µM, first compound 10 µM
[37] = second compound 10 µM, first compound 0.0316 µM
[38] = second compound 10 µM, first compound 0.1 µM
[39] = second compound 10 µM, first compound 0.316 µM
[40] = second compound 10 µM, first compound 1 µM
[41] = second compound 10 µM, first compound 3.16 µM
[42] = second compound 10 µM, first compound 10 µM
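Further: spheroids exposed to compounds for seven days before readout.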
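Wherever viability, T/C is given: 100% = DMSO vehicle control viability.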

SMILES: COc1cccc2c1C(=O)c1c(O)c3c(c(O)c1C2=O)CC(O)(C(=O)CO)CC3OC1CC(N)C(O)C(C)O1 (stereo unspecified) + Cc1cccc(N(C)C(=O)C2C(O)CCN2c2nc(C)cc(C(F)(F)F)c2C#N)c1
- pIC50 [1]: < 5.00
- pIC50 [2]: < 5.00
- pIC50 [3]: < 5.00
- pIC50 [4]: 5.04
- pIC50 [5]: 5.01
- pIC50 [6]: < 5.00
- viability, T/C [7]: 99%
- viability, T/C [8]: 87.9%
- viability, T/C [9]: 79.6%
- viability, T/C [10]: 70.5%
- viability, T/C [11]: 60.8%
- viability, T/C [12]: 53.2%
- viability, T/C [13]: 96.2%
- viability, T/C [14]: 92.5%
- viability, T/C [15]: 80.7%
- viability, T/C [16]: 70.2%
- viability, T/C [17]: 62.9%
- viability, T/C [18]: 52.8%
- viability, T/C [19]: 95.2%
- viability, T/C [20]: 94.4%
- viability, T/C [21]: 79.4%
- viability, T/C [22]: 68.2%
- viability, T/C [23]: 63%
- viability, T/C [24]: 51.7%
- viability, T/C [25]: 100%
- viability, T/C [26]: 97.9%
- viability, T/C [27]: 79.6%
- viability, T/C [28]: 70.1%
- viability, T/C [29]: 62.8%
- viability, T/C [30]: 48.2%
- viability, T/C [31]: 96.7%
- viability, T/C [32]: 86.1%
- viability, T/C [33]: 81.2%
- viability, T/C [34]: 70%
- viability, T/C [35]: 56.3%
- viability, T/C [36]: 50.6%
- viability, T/C [37]: 96.2%
- viability, T/C [38]: 81.4%
- viability, T/C [39]: 80.1%
- viability, T/C [40]: 68.2%
- viability, T/C [41]: 63.9%
- viability, T/C [42]: 48.8%

SMILES: C=CC(=O)N1CCN(c2nc(=O)n(-c3c(C)ccnc3C(C)C)c3nc(-c4c(O)cccc4F)c(F)cc23)C(C)C1 (stereo unspecified)
- viability, T/C (compound 0.0316 µM): 93% and 88.6% and 99.7%
- viability, T/C (compound 0.1 µM): 91.5% and 84.4% and 100%
- viability, T/C (compound 0.316 µM): 95.6% and 90.7% and 99.1%
- viability, T/C (compound 1 µM): 96.8% and 92.5% and 105%
- viability, T/C (compound 3.16 µM): 97.7% and 80.5% and 99.9%
- viability, T/C (compound 10 µM): 98.6% and 103% and 108%
- pIC50 (curve of compound): < 5.00

SMILES: O=C(c1cc(Cc2n[nH]c(=O)c3ccccc23)ccc1F)N1CCN(C(=O)C2CC2)CC1 + COC1C(OC(N)=O)C(O)C(Oc2ccc3c(O)c(NC(=O)c4ccc(O)c(CC=C(C)C)c4)c(=O)oc3c2C)OC1(C)C
- pIC50 [1]: < 5.00
- pIC50 [2]: < 5.00
- pIC50 [3]: < 5.00
- pIC50 [4]: < 5.00
- pIC50 [5]: < 5.00
- pIC50 [6]: < 5.00
- viability, T/C [7]: 101%
- viability, T/C [8]: 106%
- viability, T/C [9]: 94.4%
- viability, T/C [10]: 100%
- viability, T/C [11]: 106%
- viability, T/C [12]: 97.4%
- viability, T/C [13]: 105%
- viability, T/C [14]: 102%
- viability, T/C [15]: 100%
- viability, T/C [16]: 96.4%
- viability, T/C [17]: 105%
- viability, T/C [18]: 98.1%
- viability, T/C [19]: 102%
- viability, T/C [20]: 104%
- viability, T/C [21]: 98.9%
- viability, T/C [22]: 92.9%
- viability, T/C [23]: 107%
- viability, T/C [24]: 97.8%
- viability, T/C [25]: 108%
- viability, T/C [26]: 102%
- viability, T/C [27]: 100%
- viability, T/C [28]: 106%
- viability, T/C [29]: 107%
- viability, T/C [30]: 100%
- viability, T/C [31]: 107%
- viability, T/C [32]: 109%
- viability, T/C [33]: 94.9%
- viability, T/C [34]: 97%
- viability, T/C [35]: 105%
- viability, T/C [36]: 92.1%
- viability, T/C [37]: 97.7%
- viability, T/C [38]: 99.3%
- viability, T/C [39]: 102%
- viability, T/C [40]: 102%
- viability, T/C [41]: 116%
- viability, T/C [42]: 91.4%
